This is an account of results in PMC7932537, “Quantitative profiling of protease specificity” (PLoS Computational Biology, 2021).

In assay [1] the test system is MMP-2. Briefly: Substrate phage display with NGS: relative probability (RP) of P3-P1' tetramer clusters.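 Further: ratio of tetramer probability after protease selection to that in naive phage library.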 In kind it is biochemical, human. As to conditions: MMP2.
For assay [2], the target named is T1, MMP-2 (Homo sapiens, UniProt P08253).
T1 sequence (P08253 110-660): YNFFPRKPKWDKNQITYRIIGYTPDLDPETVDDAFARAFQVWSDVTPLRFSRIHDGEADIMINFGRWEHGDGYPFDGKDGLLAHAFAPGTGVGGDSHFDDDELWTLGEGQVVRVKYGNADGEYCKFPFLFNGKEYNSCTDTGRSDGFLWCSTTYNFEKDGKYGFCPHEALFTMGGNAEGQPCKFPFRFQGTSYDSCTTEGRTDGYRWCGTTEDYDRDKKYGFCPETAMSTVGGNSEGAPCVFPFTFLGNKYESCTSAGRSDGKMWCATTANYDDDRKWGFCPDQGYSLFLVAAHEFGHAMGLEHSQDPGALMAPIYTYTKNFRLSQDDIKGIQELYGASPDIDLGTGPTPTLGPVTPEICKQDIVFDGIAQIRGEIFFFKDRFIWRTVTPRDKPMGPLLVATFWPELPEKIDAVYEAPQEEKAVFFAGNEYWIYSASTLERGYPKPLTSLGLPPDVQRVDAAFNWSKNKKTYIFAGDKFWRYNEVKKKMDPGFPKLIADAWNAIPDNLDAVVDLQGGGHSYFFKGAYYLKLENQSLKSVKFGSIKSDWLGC
The assay is described as follows: K(obs) of individual phage substrates (set of 1369). As to conditions: MMP2. In kind it is biochemical.

Assay [3] deals with MMP-9 (Homo sapiens, UniProt P14780). The assay is described as above. In kind it is biochemical. The following applies: MMP9.
Where [4] appears, read: RP of the P3-P1' tetramer contained in the substrate (substrate phage display with NGS).
Where [5] appears, read: individual phage substrates, set of 1369 peptides, cleavage position marked by hyphen in sequence.
Setting [6] is: individual phage substrates, set of 1369 peptides, hyphen in sequence marks cleavage position.
The mark [7] stands for this setting: RP of the P3-P1' tetramer contained in the substrate.
Setting [8] is: individual phage substrate of the set of 1369 peptides, cleavage position marked by '-'.
[9] abbreviates: individual phage substrate of the set of 1369 peptides, dash in the sequence marks the cleavage position.

MMP-9, sequence (P14780 94-707): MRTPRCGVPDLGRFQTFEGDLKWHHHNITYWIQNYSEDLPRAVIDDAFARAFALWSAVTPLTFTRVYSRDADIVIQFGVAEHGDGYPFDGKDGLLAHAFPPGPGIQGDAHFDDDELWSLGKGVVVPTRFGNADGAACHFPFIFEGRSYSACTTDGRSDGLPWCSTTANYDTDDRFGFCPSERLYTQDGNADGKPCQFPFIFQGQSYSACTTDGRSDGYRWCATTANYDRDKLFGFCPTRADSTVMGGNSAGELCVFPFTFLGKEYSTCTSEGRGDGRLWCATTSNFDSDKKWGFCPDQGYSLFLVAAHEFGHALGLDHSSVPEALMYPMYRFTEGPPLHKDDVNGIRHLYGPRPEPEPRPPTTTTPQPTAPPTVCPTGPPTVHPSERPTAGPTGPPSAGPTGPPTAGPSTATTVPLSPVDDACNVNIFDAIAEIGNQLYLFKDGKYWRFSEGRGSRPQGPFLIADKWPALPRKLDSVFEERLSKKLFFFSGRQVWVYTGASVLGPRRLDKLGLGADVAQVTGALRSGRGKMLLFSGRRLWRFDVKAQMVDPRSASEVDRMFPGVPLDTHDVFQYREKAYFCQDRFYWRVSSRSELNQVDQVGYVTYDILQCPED

Take TVSYA-LTASG: the “relative probability (RP)” value in assay [1] (setting [4]) was 4.7967. In addition, the “Kobs” value in assay [2] (setting [5]) was determined as 1154.21 M⁻¹ s⁻¹; in assay [3] (setting [6]), 2687.73 M⁻¹ s⁻¹.
Regarding TVTQN-LTASG, the “relative probability (RP)” value in assay [1] (setting [7]) came to 7.238. Also, the Kobs in assay [2] (setting [8]) was 1327.88 M⁻¹ s⁻¹; in assay [3] (setting [9]), 0 M⁻¹ s⁻¹.
In the case of TVVAY-ITASG, the “relative probability (RP)” value in assay [1] (setting [7]) was determined as 18.7179. Also, the figures for the Kobs in assay [2] (setting [8]) and in assay [3] (setting [9]) were 12792.1 M⁻¹ s⁻¹ and 1112.44 M⁻¹ s⁻¹, respectively.
VDIRM-LTASG: the “relative probability (RP)” value in assay [1] (setting [7]) is recorded as 12.7446. The Kobs in assay [2] (setting [8]) was 5889.62 M⁻¹ s⁻¹; in assay [3] (setting [9]), 3079.62 M⁻¹ s⁻¹.
VFPMS-LTASG: the “relative probability (RP)” value in assay [1] (setting [7]) stood at 32.4868. The Kobs in assay [2] (setting [8]) and in assay [3] (setting [9]) was 12792.1 M⁻¹ s⁻¹ throughout.
As to VFTRN-LTASG, the “relative probability (RP)” value in assay [1] (setting [7]) came to 12.3403. Also, the Kobs in assay [2] (setting [8]) amounted to 12792.1 M⁻¹ s⁻¹; in assay [3] (setting [9]), 6396.07 M⁻¹ s⁻¹.
VFVSN-LTASG: in assay [1] (setting [4]), the “relative probability (RP)” value is 33.8801. Besides, the “Kobs” value worked out at 12792.1 M⁻¹ s⁻¹ in assay [2] (setting [5]) and 9740.44 M⁻¹ s⁻¹ in assay [3] (setting [6]).
In the case of VHFAS-LTASG, the “relative probability (RP)” value in assay [1] (setting [7]) is listed as 15.5827. In addition, the values for the Kobs in assay [2] (setting [8]) and in assay [3] (setting [9]) were 12792.1 M⁻¹ s⁻¹ and 1030.73 M⁻¹ s⁻¹, respectively.
With VIPRP-LTASG, the “relative probability (RP)” value in assay [1] (setting [7]) came to 34.3303. Besides, the Kobs in assay [2] (setting [8]) and in assay [3] (setting [9]) was 12792.1 M⁻¹ s⁻¹ throughout.
On to VIYGN-LTASG, for which the “relative probability (RP)” value in assay [1] (setting [7]) is 24.0019. For the same substance, the Kobs in assay [2] (setting [8]) was 8941.32 M⁻¹ s⁻¹; in assay [3] (setting [9]), 0 M⁻¹ s⁻¹.
On to VKAYN-LTASG, for which, in assay [1] (setting [4]), the “relative probability (RP)” value stood at 20.8713. In addition, the entries for the “Kobs” value in assay [2] (setting [5]) and in assay [3] (setting [6]) were 8941.32 M⁻¹ s⁻¹ and 9740.44 M⁻¹ s⁻¹, respectively.
For the substance VKPWA-LTASG, the “relative probability (RP)” value in assay [1] (setting [7]) came to 31.9211. The Kobs turned out to be 5667.28 M⁻¹ s⁻¹ in assay [2] (setting [8]) and 10866.7 M⁻¹ s⁻¹ in assay [3] (setting [9]).
With VKVFS-MTASG, the “relative probability (RP)” value in assay [1] (setting [4]) is 2.265. Besides, the “Kobs” value in assay [2] (setting [5]) turned out to be 912.511 M⁻¹ s⁻¹; in assay [3] (setting [6]), 4470.66 M⁻¹ s⁻¹.
Turning to VLPEP-LTASG, the “relative probability (RP)” value in assay [1] (setting [7]) is on record as 26.8179. Also, the Kobs is 8941.32 M⁻¹ s⁻¹ in assay [2] (setting [8]) and 6396.07 M⁻¹ s⁻¹ in assay [3] (setting [9]).
Consider VLPRS-WTASG, for which the “relative probability (RP)” value in assay [1] (setting [4]) was 32.796. Moreover, the “Kobs” value in assay [2] (setting [5]) is 8321.48 M⁻¹ s⁻¹; in assay [3] (setting [6]) it was 5889.62 M⁻¹ s⁻¹.
VLWAG-LTASG: the “relative probability (RP)” value in assay [1] (setting [4]) is 28.1709. Also, the “Kobs” value worked out at 12792.1 M⁻¹ s⁻¹ in assay [2] (setting [5]) and 3344.37 M⁻¹ s⁻¹ in assay [3] (setting [6]).
For VLWRA-LTASG, the “relative probability (RP)” value in assay [1] (setting [7]) was determined as 22.4074. The Kobs in assay [2] (setting [8]) and in assay [3] (setting [9]) was 12792.1 M⁻¹ s⁻¹ in each case.
Turning to VMLRF-LTASG, in assay [1] (setting [7]), the “relative probability (RP)” value amounted to 10.7085. In addition, the Kobs in assay [2] (setting [8]) turned out to be 12792.1 M⁻¹ s⁻¹; in assay [3] (setting [9]) it was 8321.48 M⁻¹ s⁻¹.
Consider VMVWN-ITASG, for which, in assay [1] (setting [4]), the “relative probability (RP)” value is listed as 4.0144. Further, the “Kobs” value in assay [2] (setting [5]) worked out at 2761.81 M⁻¹ s⁻¹; in assay [3] (setting [6]) it was 8321.48 M⁻¹ s⁻¹.
In the case of VMYGN-LTASG, the “relative probability (RP)” value in assay [1] (setting [4]) came out at 24.0019. Besides, the “Kobs” value amounted to 12792.1 M⁻¹ s⁻¹ in assay [2] (setting [5]) and 619.843 M⁻¹ s⁻¹ in assay [3] (setting [6]).
On the same counts, the results for VNARM-LTASG are 2.9901, 1196.62 M⁻¹ s⁻¹ and 2218.08 M⁻¹ s⁻¹.
On the same counts, the results for VPPEA-ITASG are 22.5231, 12792.1 M⁻¹ s⁻¹ and 12792.1 M⁻¹ s⁻¹.
In the case of VPPRV-LTASG, the “relative probability (RP)” value in assay [1] (setting [7]) was found to be 13.9079. Besides, the Kobs in assay [2] (setting [8]) stood at 799.117 M⁻¹ s⁻¹; in assay [3] (setting [9]), 2687.73 M⁻¹ s⁻¹.
Turning to VPWGN-LTASG, the “relative probability (RP)” value in assay [1] (setting [4]) was 14.7295. Moreover, the “Kobs” value in assay [2] (setting [5]) came out at 5461.43 M⁻¹ s⁻¹; in assay [3] (setting [6]), 0 M⁻¹ s⁻¹.
Turning to VQQQG-LTASG, in assay [1] (setting [7]), the “relative probability (RP)” value was 6.401. Moreover, the Kobs in assay [2] (setting [8]) was determined as 3741.87 M⁻¹ s⁻¹; in assay [3] (setting [9]), 231.616 M⁻¹ s⁻¹.
As for VRAHS-LTASG, in assay [1] (setting [4]), the “relative probability (RP)” value was determined as 21.0212. Further, the “Kobs” value in assay [2] (setting [5]) amounted to 4205.91 M⁻¹ s⁻¹; in assay [3] (setting [6]) it was 4922.1 M⁻¹ s⁻¹.
VRLNY-LTASG: in assay [1] (setting [4]), the “relative probability (RP)” value was found to be 12.3459. Also, the “Kobs” value turned out to be 4763.33 M⁻¹ s⁻¹ in assay [2] (setting [5]) and 0 M⁻¹ s⁻¹ in assay [3] (setting [6]).
For VRPRP-FTASG, the “relative probability (RP)” value in assay [1] (setting [7]) stood at 32.5323. The values for the Kobs in assay [2] (setting [8]) and in assay [3] (setting [9]) were 12792.1 M⁻¹ s⁻¹ and 10866.7 M⁻¹ s⁻¹, respectively.
In the case of VRVLH-LTASG, the “relative probability (RP)” value in assay [1] (setting [4]) was found to be 19.5348. The “Kobs” value in assay [2] (setting [5]) and in assay [3] (setting [6]) was 8321.48 M⁻¹ s⁻¹ each time.
VRWSW-LTASG: in assay [1] (setting [7]), the “relative probability (RP)” value is listed as 7.878. For the same substance, the Kobs in assay [2] (setting [8]) was determined as 2038.8 M⁻¹ s⁻¹; in assay [3] (setting [9]), 0 M⁻¹ s⁻¹.
On to VSLAY-LTASG, for which the “relative probability (RP)” value in assay [1] (setting [4]) was found to be 25.3422. Besides, the figures for the “Kobs” value in assay [2] (setting [5]) and in assay [3] (setting [6]) were 12792.1 M⁻¹ s⁻¹ and 113.394 M⁻¹ s⁻¹, respectively.
Take VSSYW-LTASG: the “relative probability (RP)” value in assay [1] (setting [4]) stood at 0.9791. Besides, the “Kobs” value in assay [2] (setting [5]) came to 951.362 M⁻¹ s⁻¹; in assay [3] (setting [6]), 1981.53 M⁻¹ s⁻¹.
On to VVLMG-LTASG, for which the “relative probability (RP)” value in assay [1] (setting [7]) is listed as 28.5499. In addition, the Kobs is 1925.41 M⁻¹ s⁻¹ in assay [2] (setting [8]) and 323.705 M⁻¹ s⁻¹ in assay [3] (setting [9]).
As for VVYRG-LTASG, the “relative probability (RP)” value in assay [1] (setting [4]) was 5.445. Also, the “Kobs” value in assay [2] (setting [5]) stood at 2761.81 M⁻¹ s⁻¹; in assay [3] (setting [6]), 2476.66 M⁻¹ s⁻¹.
For VYWGN-MTASG the same measures were 3.723, 4082.43 M⁻¹ s⁻¹ and 27.918 M⁻¹ s⁻¹.
Turning to WDALG-ITASG, the “relative probability (RP)” value in assay [1] (setting [7]) worked out at 18.2164. Further, the Kobs in assay [2] (setting [8]) worked out at 3850.82 M⁻¹ s⁻¹; in assay [3] (setting [9]), 2097.28 M⁻¹ s⁻¹.
With WHPVS-LTASG, the “relative probability (RP)” value in assay [1] (setting [7]) is 32.502. Moreover, the Kobs in assay [2] (setting [8]) and in assay [3] (setting [9]) was 12792.1 M⁻¹ s⁻¹ in each case.
For WKVSS-LTASG, the “relative probability (RP)” value in assay [1] (setting [4]) is on record as 29.0891. Also, the figures for the “Kobs” value in assay [2] (setting [5]) and in assay [3] (setting [6]) were 10866.7 M⁻¹ s⁻¹ and 2218.08 M⁻¹ s⁻¹, respectively.
As to WLPRA-VTASG, the “relative probability (RP)” value in assay [1] (setting [7]) is given as 28.3444. Further, the Kobs in assay [2] (setting [8]) and in assay [3] (setting [9]) was 12792.1 M⁻¹ s⁻¹ in each case.
WMPLG-MTASG: in assay [1] (setting [7]), the “relative probability (RP)” value is given as 34.1118. Besides, the figures for the Kobs in assay [2] (setting [8]) and in assay [3] (setting [9]) were 5461.43 M⁻¹ s⁻¹ and 12792.1 M⁻¹ s⁻¹, respectively.
WPHGS-LTASG: the “relative probability (RP)” value in assay [1] (setting [7]) is on record as 19.9233. The Kobs was 12792.1 M⁻¹ s⁻¹ in assay [2] (setting [8]) and 0 M⁻¹ s⁻¹ in assay [3] (setting [9]).
On the same counts, the results for WPMAK-LTASG are 21.5229, 12792.1 M⁻¹ s⁻¹ and 451.441 M⁻¹ s⁻¹.
On to WQYSN-LTASG, for which the “relative probability (RP)” value in assay [1] (setting [4]) was found to be 25.2832. In addition, the results for the “Kobs” value in assay [2] (setting [5]) and in assay [3] (setting [6]) were 3964.21 M⁻¹ s⁻¹ and 323.705 M⁻¹ s⁻¹, respectively.
With WRYSN-LTASG, in assay [1] (setting [4]), the “relative probability (RP)” value amounted to 25.2832. Moreover, the entries for the “Kobs” value in assay [2] (setting [5]) and in assay [3] (setting [6]) were 8941.32 M⁻¹ s⁻¹ and 0 M⁻¹ s⁻¹, respectively.
